From patent US20250222018A1, “METHODS OF USING AVERMECTIN COMPOSITIONS FOR THE TREATMENT OF PAIN AND DOSING REGIMENS” (L4 BIO LLC, priority 2022, published 2025)

Test system: pentylenetetrazol (PTZ)-induced ictal brain activity
Assay: Modulation of pentylenetetrazol (PTZ)-induced seizures, BOLD fMRI in rats
Assay type: in vivo, male Wistar rats
Conditions: for PTZ-induced brain activity, positive control compounds: Alprazolam 3 mg/kg i.p., 1 dose, no dose printed for Diazepam
Experimental: Functional MRI (fMRI) was performed using a high-field preclinical MRI system in anesthetized male Wistar rats in order to determine the modulation of pentylenetetrazol (PTZ)-induced ictal brain activity by chronic treatment with test compound (TC). […] Vehicle and 3 mg/kg Alprazolam served as controls (see, Table 11) Seizures were induced with PTZ in each experimental group. A schematic of the study design can be seen in FIG. 6. Various physiological parameters were also measured throughout the experiment including body weight, CO2 levels, blood pH, and heart rate. […] Vehicle and 3 mg/kg Alprazolam served as controls (see, Table 12).

Structure (SMILES)	PTZ-induced brain activity, positive control compounds	brain regions with statistical significance of BOLD fMRI AUC, Vehicle vs. Alprazolam (FIG. 7A, Alprazolam 3 mg/kg+PTZ, two-way ANOVA)
Cc1nnc2n1-c1ccc(Cl)cc1C(c1ccccc1)=NC2 [Alprazolam]	effectively cancelled PTZ-induced brain activity with high statistical significance in all tested brain regions	in all
CN1C(=O)CN=C(c2ccccc2)c2cc(Cl)ccc21 [Diazepam]	effectively cancelled PTZ-induced brain activity with high statistical significance in all tested brain regions	–
